Source: patent publication US5767116A, “Bicyclic aromatic compounds as therapeutic agents” (Knoll Atkiengesellschaft, priority 1993, dated 1998)

Columns and labels:
5-HT1A receptors = target: T1, 5-HT1A receptors (Rattus norvegicus, UniProt P19327); experiment: biochemical; format: binding, rat (male Charles River CD); conditions: 10^-6 M, rat hippocampal tissue, [^3 H]8-OH-DPAT
T1 sequence (P19327 1-422): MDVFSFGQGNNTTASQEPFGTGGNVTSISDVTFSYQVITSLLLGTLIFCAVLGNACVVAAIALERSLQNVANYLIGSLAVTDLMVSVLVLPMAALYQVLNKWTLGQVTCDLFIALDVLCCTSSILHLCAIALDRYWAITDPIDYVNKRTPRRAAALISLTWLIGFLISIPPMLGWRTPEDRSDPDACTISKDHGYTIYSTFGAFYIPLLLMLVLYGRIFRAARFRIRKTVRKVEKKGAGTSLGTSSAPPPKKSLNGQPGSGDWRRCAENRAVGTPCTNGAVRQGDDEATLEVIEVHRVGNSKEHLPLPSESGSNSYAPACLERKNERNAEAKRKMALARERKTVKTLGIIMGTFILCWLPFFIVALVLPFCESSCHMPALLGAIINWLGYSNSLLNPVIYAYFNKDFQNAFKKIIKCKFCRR
Description: The pellet was rehomogenised in the same buffer, incubated at 37° C. for 10 minutes and centrifuged at 30,000 g at 4° C. for 10 minutes. […] Aliquots (400 μl; equivalent to 2.5 mg wet weight of tissue/tube) of this suspension were added to tubes containing the ligand (50 μl; 2 nM) and distilled water (50 μl; total binding) or 5-HT (50 μl; 10 µM; non-specific binding) or test compound (50 μl; at a single concentration of 10^-6 M or at 10 concentrations ranging from 10^-11 -10^-3 M). The ligand was [^3 H]8-hydroxy-2-(dipropylamino)tetralin([^3 H]8-OH-DPAT) and the mixture was incubated at 25° C. for 30 minutes before the incubation was terminated by rapid filtration.
(§1) The filters were punched out into vials, scintillation fluid added and radioactivity determined by liquid scintillation counting. The percentage displacement of specific binding of the tritiated ligand was calculated for the single concentration (10^-6 M) of test compound. Displacement curves were then produced for those compounds which displaced ≥50% of specific binding of the tritiated ligand at 10^-6 M using a range of concentrations of the compound. […] The inhibition coefficient Ki was then calculated using the formula [formula] in which [ligand] is the concentration of the tritiated ligand used and KD is the equilibrium dissociation constant for the ligand.

α2-adrenoceptors = target: T2, α2-adrenoceptors (Rattus norvegicus, UniProt P22909); experiment: inhibition of tritiated ligand (tritiated idazoxan) binding to α2-adrenoceptors in vitro (frontal cortical tissue); parameters: species or system rat (male Charles River CD); conditions: 10^-6 M, rat frontal cortical tissue, tritiated idazoxan; 1 µM
T2 sequence (P22909 1-465): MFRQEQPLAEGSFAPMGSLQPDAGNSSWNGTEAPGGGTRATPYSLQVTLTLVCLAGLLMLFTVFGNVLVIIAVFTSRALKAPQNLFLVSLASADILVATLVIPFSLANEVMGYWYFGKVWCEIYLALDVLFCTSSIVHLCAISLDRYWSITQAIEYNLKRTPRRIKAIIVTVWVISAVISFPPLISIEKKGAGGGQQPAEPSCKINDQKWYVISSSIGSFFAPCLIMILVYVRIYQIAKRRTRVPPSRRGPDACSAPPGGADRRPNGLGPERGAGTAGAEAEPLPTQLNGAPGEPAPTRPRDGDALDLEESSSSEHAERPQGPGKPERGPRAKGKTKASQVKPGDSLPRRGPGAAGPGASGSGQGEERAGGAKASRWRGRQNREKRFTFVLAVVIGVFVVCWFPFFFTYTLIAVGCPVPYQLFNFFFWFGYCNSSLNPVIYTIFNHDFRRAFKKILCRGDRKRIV
Description: Frontal cortical tissue from the brains of male Charles River CD rats weighing between 150-250 g were homogenised in ice-cold 0.25M sucrose (1:30 w/v) and centrifuged at 1,000 g at 4° C. for 12 minutes. The supernatant was stored on ice and the pellet was rehomogenised in 0.25M sucrose (1:15 w/v) and centrifuged at 850 g at 4° C. for 12 minutes. Combined supernatants were diluted with 5 mM Tris-HCl (pH 7.5) containing 0.5M ethylenediamine tetraacetic acid (EDTA) readjusted to pH 7.5 (at 25° C.) with 1M sodium hydroxide to 1:80 w/v, and centrifuged at 30,000 g at 4° C. for 10 minutes. The resulting pellet was resuspended in 5 mM Tris-HCl (pH 7.5) containing 5.68 mM L-ascorbic acid and 5 mM EDTA readjusted to pH 7.5 (at 25° C.) with 1M sodium hydroxide, and centrifuged at 30,000 g for 10 minutes. The final pellet was resuspended in 50 mM Tris-HCl (pH 7.5) containing 5.68 mM L-ascorbic acid and 5 mM EDTA (equivalent to 12.5 mg wet weight of tissue/ml) and used immediately in the binding assay. Aliquots (400 μl; equivalent to 5 mg wet weight of tissue/tube) of this suspension were added to tubes containing the ligand (50 μl; 1 nM) and distilled water (50 μl; total binding) or phentolamine (50 μl; 5 μM; non-specificbinding) or test compound (50 μl; at a single concentration of 10^-6 M or at 10 concentrations ranging from 10^-11 -10^-3 M). The ligand was tritiated idazoxan ((1,4-[6,7(n)-^3 H]benzodioxan-2-yl)-2-imidazoline hydrochloride) and the mixture was incubated at 0° C. for 75 minutes before the incubation was terminated by rapid filtration.
as §1, with “The filters were washed with ice-cold Tris-HCl buffer and dried. The filters” for “The filters”

D2 dopamine receptors = D2 dopamine receptors (Rattus norvegicus, UniProt P61169); experiment: biochemical; format: binding, rat (male Charles River CD)
Sequence of D2 dopamine receptors (P61169 whole entry): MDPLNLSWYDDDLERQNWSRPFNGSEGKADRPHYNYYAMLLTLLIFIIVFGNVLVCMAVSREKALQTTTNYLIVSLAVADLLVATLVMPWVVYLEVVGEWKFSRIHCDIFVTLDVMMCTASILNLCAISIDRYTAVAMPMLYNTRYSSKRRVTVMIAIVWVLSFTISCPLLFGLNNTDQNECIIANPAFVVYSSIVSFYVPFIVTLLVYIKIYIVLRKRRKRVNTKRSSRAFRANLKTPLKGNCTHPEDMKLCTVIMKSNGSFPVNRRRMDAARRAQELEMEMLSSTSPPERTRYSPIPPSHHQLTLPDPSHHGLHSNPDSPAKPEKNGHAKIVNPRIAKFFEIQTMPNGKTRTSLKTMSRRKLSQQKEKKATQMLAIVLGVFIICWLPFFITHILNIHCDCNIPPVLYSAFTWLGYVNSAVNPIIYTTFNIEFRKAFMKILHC

α1-adrenoceptors = experiment: inhibition of tritiated ligand ([7-methoxy-^3 H]prazosin) binding to α1-adrenoceptors in vitro (whole cortical tissue); parameters: species or system rat (male Charles River CD); conditions: 10^-6 M, rat whole cortical tissue, 30 min, 1 µM
Description: The supernatant was centrifuged at 30,000 g at 4° C. for 10 minutes. […] Aliquots (400 μl; equivalent to 5 mg wet weight of tissue/tube) of this suspension were added to tubes containing the ligand (50 μl; 0.1 nM) and distilled water (50 μl; total binding) or phentolamine (50 μl; 5 μM; non-specific binding) or test compound (50 μl; at a single concentration of 10^-6 M or at 10 concentrations ranging from 10^-11 -10^-3 M). The ligand was [7-methoxy-^3 H]prazosin and the mixture was incubated at 30° C. for 30 minutes before the incubation was terminated by rapid filtration.
as §1

Substance: N-(5-fluoro-1,4-benzodioxan-2-ylmethyl)-1-[1-(2-methoxyphenyl) piperid-4-yl]methylamine hydrochloride and N-(8-fluoro-1,4-benzodioxan-2-ylmethyl)-1-[1-(2-methoxyphenyl) piperid-4-yl]methylamine hydrochloride [Example 23]
- % displacement at 10^-6 M, 5-HT1A (5-HT1A receptors): 92%
- % displacement at 10^-6 M, α2 (α2-adrenoceptors): 75%
- Ki (D2 dopamine receptors): 43 nM
- % displacement at 10^-6 M, α1 (α1-adrenoceptors): 92%
